Test results as given in ChEMBL document CHEMBL1147972, “1,3-disubstituted 4-aminopiperidines as useful tools in the optimization of the 2-aminobenzo[a]quinolizine dipeptidyl peptidase IV inhibitors” (Bioorg Med Chem Lett, 2007).

Experiments:
Liver microsomes [1] = test: Clearance in rat liver microsome; type: ADME
[2] = Solubility of the compound; type: physicochemical
Rattus norvegicus = test: Reduction in glucose level in fa/fa rat after oral glucose tolerance test at 0.3 mg/kg administered 2 hrs before glucose challenge; type: functional; parameters: scale not given: the % may be the effect or the level left
Cytochrome P450 2C9 = Cytochrome P450 2C9 (Homo sapiens, UniProt P11712); test: Inhibition of CYP2C9; type: ADME
Cytochrome P450 2D6 = Cytochrome P450 2D6 (Homo sapiens, UniProt P10635); test: Inhibition of CYP2D6; type: ADME
[3] = Permeability coefficient across PAMPA; type: ADME; conditions: read-out: permeability
Liver microsomes [4] = test: Clearance in human liver microsome; type: ADME
[5] = Distribution coefficient, log D at pH 7.4; type: physicochemical; conditions: octanol/water
Cytochrome P450 3A4 = Cytochrome P450 3A4 (Homo sapiens, UniProt P08684); test: Inhibition of CYP3A4; type: ADME
Sequence of Cytochrome P450 3A4 (P08684 whole entry): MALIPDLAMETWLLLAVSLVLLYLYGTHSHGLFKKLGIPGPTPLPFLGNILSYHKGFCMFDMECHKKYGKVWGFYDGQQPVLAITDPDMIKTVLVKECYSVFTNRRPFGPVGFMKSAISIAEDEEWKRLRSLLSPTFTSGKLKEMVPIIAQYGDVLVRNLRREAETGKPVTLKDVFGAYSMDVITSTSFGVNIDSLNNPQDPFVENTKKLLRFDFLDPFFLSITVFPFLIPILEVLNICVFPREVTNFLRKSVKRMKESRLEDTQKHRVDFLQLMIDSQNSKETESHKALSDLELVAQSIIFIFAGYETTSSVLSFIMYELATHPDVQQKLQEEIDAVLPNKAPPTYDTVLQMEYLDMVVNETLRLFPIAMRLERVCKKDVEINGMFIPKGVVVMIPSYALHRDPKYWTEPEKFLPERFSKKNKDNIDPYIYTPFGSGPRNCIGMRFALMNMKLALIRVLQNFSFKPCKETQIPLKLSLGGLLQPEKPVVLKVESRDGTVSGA

Sequence of Cytochrome P450 2C9 (P11712 whole entry): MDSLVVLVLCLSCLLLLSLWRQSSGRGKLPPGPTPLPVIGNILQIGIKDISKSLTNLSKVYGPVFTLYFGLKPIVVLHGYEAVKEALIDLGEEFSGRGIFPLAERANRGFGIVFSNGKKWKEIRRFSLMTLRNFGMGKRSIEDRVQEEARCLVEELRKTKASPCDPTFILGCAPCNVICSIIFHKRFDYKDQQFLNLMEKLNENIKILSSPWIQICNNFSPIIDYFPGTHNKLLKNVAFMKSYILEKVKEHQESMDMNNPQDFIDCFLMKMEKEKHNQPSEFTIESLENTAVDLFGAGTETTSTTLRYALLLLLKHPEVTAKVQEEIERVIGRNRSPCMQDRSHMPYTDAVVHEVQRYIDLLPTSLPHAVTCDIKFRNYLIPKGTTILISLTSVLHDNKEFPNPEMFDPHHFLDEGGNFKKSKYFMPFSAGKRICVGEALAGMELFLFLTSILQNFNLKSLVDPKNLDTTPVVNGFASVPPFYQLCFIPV
Sequence of Cytochrome P450 2D6 (P10635 whole entry): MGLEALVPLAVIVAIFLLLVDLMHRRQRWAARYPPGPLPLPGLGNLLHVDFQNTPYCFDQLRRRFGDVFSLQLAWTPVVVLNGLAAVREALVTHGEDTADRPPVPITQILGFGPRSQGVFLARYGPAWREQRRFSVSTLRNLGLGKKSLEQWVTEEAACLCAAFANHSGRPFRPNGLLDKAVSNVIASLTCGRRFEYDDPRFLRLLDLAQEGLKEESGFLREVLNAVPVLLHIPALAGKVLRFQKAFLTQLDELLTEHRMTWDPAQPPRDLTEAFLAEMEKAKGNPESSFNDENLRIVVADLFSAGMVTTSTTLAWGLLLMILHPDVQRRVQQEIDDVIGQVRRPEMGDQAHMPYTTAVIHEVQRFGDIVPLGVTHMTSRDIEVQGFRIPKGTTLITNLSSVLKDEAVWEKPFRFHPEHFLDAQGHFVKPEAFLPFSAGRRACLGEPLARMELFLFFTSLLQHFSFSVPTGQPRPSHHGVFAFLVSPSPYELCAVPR

Compound CCCC[C@H]1CN2CCc3cc(OC)c(OC)cc3[C@@H]2C[C@@H]1N has a clearance (Liver microsomes [1]) of 4.7 µL/min/mg, a Solubility [2] of over 0.414 mg/mL and an Activity (Rattus norvegicus) of -16%. It also gave an IC50 (Cytochrome P450 2C9) of over 50 µM, an IC50 (Cytochrome P450 2D6) of over 50 µM and a Papp [3] of 25 nm/s. For the same compound, the clearance (Liver microsomes [4]) was 0 µL/min/mg, the logD [5] was 0.8 and the IC50 (Cytochrome P450 3A4) was over 50 µM.

In the case of COc1cc2c(cc1OC)[C@@H]1C[C@H](N)[C@@H](c3cccc(C)c3)CN1CC2, the clearance (Liver microsomes [1]) is reported as 1 µL/min/mg, the Solubility [2] is reported as over 0.469 mg/mL and the Activity (Rattus norvegicus) is reported as -41%. The IC50 (Cytochrome P450 2C9) was 15 µM, the IC50 (Cytochrome P450 2D6) was 11 µM and the Papp [3] was 34 nm/s. The clearance (Liver microsomes [4]) was 3 µL/min/mg, the logD [5] was 1.3 and the IC50 (Cytochrome P450 3A4) was over 50 µM.
